The supplement of paper PMC6461962

How the values were obtained:
[1] = system: Pseudomonas fluorescens FW300-N2E2
In short: (§1)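 Growth was read as OD600 at 24 h, or at 48 h for R2A strain comparisons, after washed cells at a final OD600 of 0.02 (80 µL) were added to 384-well plates holding serially diluted inorganic ion salts or equimolar nitrilotriacetic acid complexes. Aerobic plates were shaken at 700 rpm at 30 °C, but anaerobic plates were not. IC50 was calculated with the drc R package from at least two biological replicate curves, scaled between water and growth-blocking antibiotic controls and excluding wells with precipitate.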

[2] = system: Rhodanobacter sp. FW104-10B01
In short: as §1

[3] = medium / electron acceptor: N2E2 Glucose/aerobic
[4] = medium / electron acceptor: N2E2 Glucose/aerobic 0.25xMinerals
[5] = medium / electron acceptor: N2E2 Glucose/aerobic (2)
[6] = medium / electron acceptor: N2E2 KB/aerobic
[7] = medium / electron acceptor: N2E2 LB/aerobic
[8] = medium / electron acceptor: N2E2 LB/aerobic (2)
[9] = medium / electron acceptor: N2E2 LB/nitrate
[10] = medium / electron acceptor: N2E2 Lactate/aerobic
[11] = medium / electron acceptor: N2E2 R2A/aerobic
[12] = medium / electron acceptor: 10B01 R2A/aerobic
[13] = medium / electron acceptor: 10B01 R2A/nitrate

SMILES | IC50 growth inhibition [1, 3] [µM] | IC50 growth inhibition [1, 4] [µM] | IC50 growth inhibition [1, 5] [µM] | IC50 growth inhibition [1, 6] [µM] | IC50 growth inhibition [1, 7] [µM] | IC50 growth inhibition [1, 8] [µM] | IC50 growth inhibition [1, 9] [µM] | IC50 growth inhibition [1, 10] [µM] | IC50 growth inhibition [1, 11] [µM] | IC50 growth inhibition [2, 12] [µM] | IC50 growth inhibition [2, 13] [µM]
O=[Se]([O-])[O-].[Na+].[Na+] [Sodium selenite pentahydrate] | < 244 | < 244 | < 244 | < 244 | < 244 | < 244 | 250000 | < 244 | < 244 | 250000 | 112000
O.O.O.O.O.O.O.O.O.O.O=S(=O)([O-])[O-].[Na+].[Na+] [Sodium sulfate] | 356000 | > 500000 | > 500000 | > 500000 | 455000 | > 500000 | 311000 | 384000 | 183000 | 354000 | 317000
OP(O)(O)=S [Sodium thiophosphate tribasic hydrate] | > 50000 | > 50000 | > 50000 | 42200 | > 50000 | 33100 | 21000 | > 50000 | > 50000 | > 50000 | > 50000
O=S(O)(O)=S [Sodium thiosulfate] | 318000 | > 500000 | 386000 | 319000 | 363000 | 360000 | 185000 | 355000 | 360000 | > 500000 | 57600
O.O.[Na+].[Na+].[O]=[W](=[O])([O-])[O-] [Sodium tungstate dihydrate] | < 244 | < 244 | 3310 | 1170 | 539 | 20500 | 21300 | < 244 | 237000 | > 500000 | > 500000
[Cl-].[Cl-].[Sr+2] [Strontium chloride] | 332 | < 244 | < 244 | < 244 | 27700 | 17200 | 12800 | < 244 | 261000 | 354000 | 370000
CC(=O)[O-].[Tl+] [Thallium(I) acetate] | < 2.44 | < 2.44 | < 2.44 | < 2.44 | < 2.44 | < 2.44 | < 2.44 | < 2.44 | < 2.44 | > 5000 | 2950
[Cl-].[Cl-].[Zn+2] [Zinc chloride] | < 2.44 | < 2.44 | < 2.44 | 2720 | 2620 | 2550 | 580 | < 2.44 | 70.4 | 1770 | 4500
O.O.O.O.O=S(=O)([O-])[O-].[Be+2] [beryllium sulfate tetrahydrate] | 1550 | 1550 | 1550 | 109000 | 1610 | < 244 | 91900 | 4800 | > 500000 | > 500000 | > 500000
[Cl][Bi]([Cl])[Cl] [bismuth(III) chloride] | 10.3 | 2.76 | 1.53 | 57.8 | 72.7 | 103 | 6.03 | 7.86 | 4.01 | 2.79 | 354
O.O.[Cl][Cu][Cl] [copper (II) chloride dihydrate] | 76.7 | 76.7 | 76.7 | > 5000 | > 5000 | > 5000 | > 5000 | 76.7 | 525 | > 5000 | > 5000
O.[Au+3].[Cl-].[Cl-].[Cl-] [gold (III) chloride hydrate] | < 0.244 | 1.97 | < 0.244 | < 0.244 | < 0.244 | < 0.244 | < 0.244 | 0.257 | < 0.244 | < 0.244 | < 0.244
[Cl][Pb][Cl] [lead (II) chloride] | > 5000 | 38 | > 5000 | > 5000 | > 5000 | > 5000 | > 5000 | > 5000 | 140 | > 5000 | > 5000
[Cl][Hg][Cl] [mercury (II) chloride] | < 2.44 | < 2.44 | < 2.44 | < 2.44 | < 2.44 | < 2.44 | < 2.44 | < 2.44 | < 2.44 | < 2.44 | < 2.44
[Cl][Pt]([Cl])([Cl])[Cl] [platinum (IV) chloride] | 17.5 | 17.5 | 17.5 | 35.2 | 172 | 66.1 | 32.9 | 418 | 86.1 | 123 | 93.5
[K+].[OH-].[OH-].[OH-].[OH-].[OH-].[OH-].[Sb+3] [potassium hexahydroxoantimonate] | > 5000 | 3960 | 4820 | 4980 | > 5000 | 4820 | 3080 | > 5000 | > 5000 | > 5000 | > 5000
O.O=[Te](=O)([O-])[O-].[K+].[K+] [potassium tellurate hydrate] | > 500 | 75.3 | 444 | > 500 | > 500 | 377 | 84.5 | 354 | > 500 | > 500 | > 500
